Measurements from ChEMBL document CHEMBL3734726, “An abietane diterpene from Salvia cuspidata and some new derivatives are active against Trypanosoma cruzi” (Bioorg Med Chem Lett, 2015).
In brackets after ≈: the same amount, converted by molar mass. Activity calls are given as the source filed them. The rule behind the calls is not given here.

Assays:
[1] = tested on: Trypanosoma cruzi; experiment: Antitrypanosomal activity against epimastigote stage of Trypanosoma cruzi Dm28c assessed as reduction in parasite viability at after 24 hrs by eosin exclusion based hemocytometry; type: functional, organism-based
[2] = Cytotoxicity against african green monkey Vero cells assessed as cell viability at 10 ug/ml after 24 hrs by eosin staining based microscopy; conditions: chlorocebus sabaeus, read-out: Activity
[3] = tested on: Trypanosoma cruzi; experiment: Antitrypanosomal activity against epimastigote stage of Trypanosoma cruzi Dm28c assessed as parasite viability at 10 ug/ml after 24 hrs by eosin exclusion based hemocytometry; type: functional
[4] = tested on: Trypanosoma cruzi; experiment: Antitrypanosomal activity against epimastigote stage of Trypanosoma cruzi Dm28c assessed as parasite viability at 2 ug/ml after 24 hrs by eosin exclusion based hemocytometry; type: functional
[5] = Cytotoxicity against african green monkey Vero cells assessed as cell viability at 1 ug/ml after 24 hrs by eosin staining based microscopy; conditions: chlorocebus sabaeus, read-out: Activity
[6] = tested on: Trypanosoma cruzi; experiment: Antitrypanosomal activity against epimastigote stage of Trypanosoma cruzi Dm28c assessed as parasite viability at 5 ug/ml after 24 hrs by eosin exclusion based hemocytometry; type: functional
[7] = Cytotoxicity against african green monkey Vero cells assessed as cell viability at 5 ug/ml after 24 hrs by eosin staining based microscopy; conditions: chlorocebus sabaeus, read-out: Activity
[8] = tested on: Trypanosoma cruzi; experiment: Antitrypanosomal activity against epimastigote stage of Trypanosoma cruzi Dm28c assessed as parasite viability at 1 ug/ml after 24 hrs by eosin exclusion based hemocytometry; type: functional
[9] = tested on: Trypanosoma cruzi; experiment: Trypanocidal activity against epimastigote stage of Trypanosoma cruzi Dm28c assessed as induction of vacuolization at 5 ug/ml after 48 hrs by lead citrate staining based microscopy; type: functional, organism-based
[10] = Cytotoxicity against african green monkey Vero cells assessed as cell viability at 2 ug/ml after 24 hrs by eosin staining based microscopy; conditions: chlorocebus sabaeus, read-out: Activity

With `CC(C)C1=C(O)C(=O)C2=C(C=C[C@@H]3[C@]24CCC[C@]3(C)C(=O)OC4)C1=O` the IC50 [1] was 5 µg/mL (≈ 14.6 µM), the viability at 24 h, 10 ug/ml [2] was 88.4% and the Parasite viability [3] was 16.3%. It also gave a Parasite viability [4] of 76.4%, a viability at 24 h, 1 ug/ml [5] of 99.2% and a Parasite viability [6] of 49.7%. The viability at 24 h, 5 ug/ml [7] was 98.8%, the Parasite viability [8] was 99.2% and the Activity [9] was “Active”. It also gave a viability at 24 h, 2 ug/ml [10] of 99.5%.

`C=CCOC1=C(C(C)C)C(=O)C2=C(C1=O)[C@]13CCC[C@](C)(C(=O)OC1)[C@@H]3C=C2` gave a viability at 24 h, 10 ug/ml [2] of 85.5%, a Parasite viability [3] of 18.3% and a Parasite viability [4] of 65.5%. The viability at 24 h, 1 ug/ml [5] was 99.8%, the Parasite viability [6] was 29.5% and the viability at 24 h, 5 ug/ml [7] was 99.1%. The Parasite viability [8] was 85.5% and the viability at 24 h, 2 ug/ml [10] was 99.6%.

With `CC(=O)OC1=C(C(C)C)C(=O)C2=C(C1=O)[C@]13CCC[C@](C)(C(=O)OC1)[C@@H]3C=C2` the viability at 24 h, 10 ug/ml [2] was 92.4%, the Parasite viability [3] was 16.3% and the Parasite viability [4] was 89.5%. For the same molecule, the viability at 24 h, 1 ug/ml [5] was 99.8%, the Parasite viability [6] was 39.5% and the viability at 24 h, 5 ug/ml [7] was 99.2%. For the same molecule, the Parasite viability [8] was 99.2% and the viability at 24 h, 2 ug/ml [10] was 99.7%.

`CC(C)C1=C(O[Si](C)(C)C)C(=O)C2=C(C=C[C@@H]3[C@]24CCC[C@]3(C)C(=O)OC4)C1=O` gave an IC50 [1] of 2 µg/mL (≈ 4.82 µM), a viability at 24 h, 10 ug/ml [2] of 83.6% and a Parasite viability [3] of 15.3%. The Parasite viability [4] was 49.5%, the viability at 24 h, 1 ug/ml [5] was 99.7% and the Parasite viability [6] was 29.5%. The viability at 24 h, 5 ug/ml [7] was 99.1%, the Parasite viability [8] was 85.5% and the viability at 24 h, 2 ug/ml [10] was 99.6%.
